We go through three compounds from ChEMBL document CHEMBL1123179, “4-Amino-2-(substituted methyl)-2-butenoic acids: substrates and potent inhibitors of gamma-aminobutyric acid aminotransferase” (J Med Chem, 1986).

This experiment has as its target 4-aminobutyrate aminotransferase, mitochondrial (Sus scrofa, UniProt P80147). As to the kind of experiment: Compound was tested for the inhibitory effect against Gamma-amino-N-butyrate transaminase from pig brain.

Chain of 4-aminobutyrate aminotransferase, mitochondrial (P80147 whole entry): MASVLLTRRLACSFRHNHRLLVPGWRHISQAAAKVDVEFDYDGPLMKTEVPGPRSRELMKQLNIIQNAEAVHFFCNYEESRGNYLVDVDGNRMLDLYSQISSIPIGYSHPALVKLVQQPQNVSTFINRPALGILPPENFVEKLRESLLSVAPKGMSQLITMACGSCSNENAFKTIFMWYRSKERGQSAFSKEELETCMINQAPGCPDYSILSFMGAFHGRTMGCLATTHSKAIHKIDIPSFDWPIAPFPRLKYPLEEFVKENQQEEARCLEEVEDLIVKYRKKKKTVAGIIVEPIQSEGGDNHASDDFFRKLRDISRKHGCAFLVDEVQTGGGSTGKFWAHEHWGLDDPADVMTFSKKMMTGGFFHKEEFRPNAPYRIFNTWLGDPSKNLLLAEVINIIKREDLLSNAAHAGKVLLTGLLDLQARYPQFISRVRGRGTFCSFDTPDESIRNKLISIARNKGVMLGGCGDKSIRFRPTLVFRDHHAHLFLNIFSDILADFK

What is called Ki is the dissociation constant of the complex between target and ligand, obtained from inhibition or displacement. In the case of `NC/C=C(\CCl)C(=O)O`, the affinity corresponds to a Ki of 24 µM. `NC/C=C(\CO)C(=O)O`: affinity was put at a Ki of 5 µM. With `NC/C=C(\CF)C(=O)O`, the Ki was found to be 19 µM.
